Data taken from ChEMBL document CHEMBL5537159, “Discovery and SAR of JTE-151: A Novel RORγ Inhibitor for Clinical Development” (J Med Chem, 2024).

What was measured:
[1] = Metabolic stability in human liver microsomes assessed as compound remaining at 5 umol/L measured after 60 mins by UPLC/MS analysis; type: ADME, Microsome; settings: dose 5 µmol/L, read-out: Stability
[2] = Apparent permeability in human Caco-2 cells at 25 umol/L incubated for 2 hrs by LC/MS/MS analysis; type: ADME, cell-based; settings: dose 25 µmol/L
[3] = Lipophilicity, logD of compound by RP-HPLC analysis; type: physicochemical
[4] = target: T1, Nuclear receptor ROR-gamma (Homo sapiens, UniProt P51449); assay: Inhibition of GAL4 DNA-binding domain fused RORgamma (unknown origin) transfected in CHO-K1 cells incubated for 2 days by luciferase assay; type: cell-based
T1 sequence (P51449 whole entry): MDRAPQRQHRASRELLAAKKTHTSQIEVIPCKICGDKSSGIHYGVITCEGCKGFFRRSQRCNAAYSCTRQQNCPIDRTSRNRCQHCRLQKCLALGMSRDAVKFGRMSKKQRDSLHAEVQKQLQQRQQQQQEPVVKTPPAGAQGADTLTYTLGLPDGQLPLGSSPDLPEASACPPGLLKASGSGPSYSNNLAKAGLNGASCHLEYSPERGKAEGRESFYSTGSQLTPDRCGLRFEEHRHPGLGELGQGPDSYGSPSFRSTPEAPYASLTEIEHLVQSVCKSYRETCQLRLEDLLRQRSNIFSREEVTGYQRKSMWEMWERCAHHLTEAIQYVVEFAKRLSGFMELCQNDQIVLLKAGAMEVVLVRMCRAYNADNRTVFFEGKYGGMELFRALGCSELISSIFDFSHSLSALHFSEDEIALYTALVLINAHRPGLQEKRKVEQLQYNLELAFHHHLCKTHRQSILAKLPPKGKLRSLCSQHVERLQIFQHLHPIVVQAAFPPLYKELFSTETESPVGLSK

SMILES | remaining at 1 h, 5 µM [1] | Papp at 2 h, 25 µM [2] | logD [3] | EC50 [4]
CC(=O)N1C[C@H](C(=O)Nc2ccc(C)cc2C)[C@@H](c2nnc([C@H]3C[C@@H](CC(C)C)C3)n2C2CC2)C1 | 61% | 19.8 ×10⁻⁶ cm/s |  | 
Cc1ccc(NC(=O)C[C@H](c2nnc([C@H]3C[C@@H](CC(C)C)C3)n2C2CC2)[C@H]2C[C@@H](O)C2)c(C)c1 | 0% | 15.2 ×10⁻⁶ cm/s | 4.1 | 
Cc1ccc(NC(=O)C[C@H](CCC(=O)O)c2noc([C@H]3C[C@@H](CC(C)C)C3)c2C2CC2)c(C)c1 | 61% | 31.4 ×10⁻⁶ cm/s | 4.7 | 
Cc1ccc(NC(=O)C[C@H](CC(=O)O)c2noc([C@H]3C[C@@H](CCC(C)C)C3)c2C2CC2)c(C)c1 | 90% | 21.5 ×10⁻⁶ cm/s | 4.7 | 
Cc1ccc(NC(=O)C[C@H](CC(=O)O)c2noc([C@H]3C[C@@H](CC(C)C)C3)c2C2CC2)cc1C | 65% | 32.4 ×10⁻⁶ cm/s | 4.5 | 
Cc1ccc(NC(=O)C[C@H](CC(=O)O)c2noc([C@H]3C[C@@H](C(C)(C)C(C)C)C3)c2C2CC2)c(C)c1 | 60% | 23.6 ×10⁻⁶ cm/s | 4.7 | 
Cc1ccc(NC(=O)C[C@H](CC(=O)O)c2noc([C@H]3C[C@@H](CC(C)C)C3)c2C2CC2)c(Cl)c1 | 67% | 27.4 ×10⁻⁶ cm/s | 4.4 | 43 nM
Cc1ccc(NC(=O)C[C@H](Cc2nc(C(=O)O)cs2)c2noc([C@H]3C[C@@H](CC(C)C)C3)c2C2CC2)c(C)c1 | 71% | 7.5 ×10⁻⁶ cm/s | 4.2 | 110 nM
Cc1ccc(NC(=O)C[C@@H](c2noc([C@H]3C[C@@H](CC(C)C)C3)c2C2CC2)C(C)(C)CC(=O)O)c(C)c1 | 53% | 27.7 ×10⁻⁶ cm/s | 5.2 | 
Cc1ccc(NC(=O)C[C@H](CC(=O)O)c2noc([C@H]3C[C@@H](CCC(C)(C)C)C3)c2C2CC2)c(C)c1 | 61% | 22.8 ×10⁻⁶ cm/s | 5 | 
Cc1ccc(NC(=O)C[C@H](Cc2ccc(C(=O)O)cc2)c2noc([C@H]3C[C@@H](CC(C)C)C3)c2C2CC2)c(C)c1 (mixture of isomers) | 67% | 14.3 ×10⁻⁶ cm/s | 4.7 | 
Cc1ccc(NC(=O)CC(c2nnc([C@H]3C[C@@H](CC(C)C)C3)n2C2CC2)C2CN(C)C2)c(C)c1 (mixture of isomers) | 78% | 0.7 ×10⁻⁶ cm/s | 3.8 | 6900 nM
Cc1ccc(NC(=O)CC(CC(=O)O)c2nnc([C@H]3C[C@@H](CC(C)C)C3)n2C2CC2)c(C)c1 (mixture of isomers) | 103% | 0.1 ×10⁻⁶ cm/s | 3.2 | 3000 nM
CC(C)C[C@H]1C[C@@H](c2onc([C@@H](CC(=O)O)CC(=O)Nc3ccc(Cl)cc3F)c2C2CC2)C1 | 67% | 29.9 ×10⁻⁶ cm/s | 4.4 | 97 nM
Cc1cccc(NC(=O)C[C@H](CC(=O)O)c2noc([C@H]3C[C@@H](CC(C)C)C3)c2C2CC2)c1C | 67% | 35.5 ×10⁻⁶ cm/s | 4.3 | 
Cc1cc(F)ccc1NC(=O)C[C@H](CC(=O)O)c1noc([C@H]2C[C@@H](CC(C)C)C2)c1C1CC1 | 82% | 38 ×10⁻⁶ cm/s | 3.9 | 64 nM
Cc1ccc(NC(=O)CC(Cc2nnn[nH]2)c2nnc([C@H]3C[C@@H](CC(C)C)C3)n2C2CC2)c(C)c1 (mixture of isomers) | 91% | 0.2 ×10⁻⁶ cm/s | 3.1 | 6000 nM
Cc1ccc(NC(=O)C[C@H](CC(=O)O)c2noc([C@H]3C[C@@H](CC(C)C)C3)c2C2CC2)c(F)c1 | 67% | 33.1 ×10⁻⁶ cm/s | 4.2 | 
Cc1cc(C)c(C)c(NC(=O)C[C@H](CC(=O)O)c2noc([C@H]3C[C@@H](CC(C)C)C3)c2C2CC2)c1 | 64% | 17 ×10⁻⁶ cm/s | 4.5 | 63 nM
Cc1ccc(NC(=O)C[C@H](CCC(=O)O)C(=O)N(C[C@H]2C[C@@H](CC(C)(C)C)C2)C2CC2)c(Cl)c1 (mixture of isomers) | 73% | 30.6 ×10⁻⁶ cm/s | 4.5 | 
Cc1ccc(C)c(NC(=O)C[C@H](CC(=O)O)c2noc([C@H]3C[C@@H](CC(C)C)C3)c2C2CC2)c1 | 76% | 35.5 ×10⁻⁶ cm/s | 4.2 | 65 nM
C=C(C)c1c([C@@H](CC(=O)O)CC(=O)Nc2ccc(C)cc2C)noc1[C@H]1C[C@@H](CC(C)C)C1 | 54% | 27.6 ×10⁻⁶ cm/s | 4.3 | 1200 nM

SMILES | remaining at 1 h, 5 µM [1] | Papp at 2 h, 25 µM [2] | logD [3] | EC50 [4]
Cc1ccc(NC(=O)C[C@H](Cc2nnn[nH]2)c2noc([C@H]3C[C@@H](CC(C)C)C3)c2C2CC2)c(C)c1 | 0% | 21.8 ×10⁻⁶ cm/s | 4.1 | 63 nM
Cc1ccc(NC(=O)C[C@H](CC(=O)O)c2noc([C@H]3C[C@@H](CC(C)(C)C)C3)c2C2CC2)c(C)c1 (mixture of isomers) | 82% | 24.6 ×10⁻⁶ cm/s | 4.5 | 29 nM
CCC(CC)C[C@H]1C[C@@H](c2onc([C@@H](CC(=O)O)CC(=O)Nc3ccc(C)cc3C)c2C2CC2)C1 | 88% | 13.6 ×10⁻⁶ cm/s | 4.9 | 
CCc1c([C@@H](CC(=O)O)CC(=O)Nc2ccc(C)cc2C)noc1[C@H]1C[C@@H](CC(C)C)C1 | 68% | 37.9 ×10⁻⁶ cm/s | 4.2 | 
Cc1ccc(NC(=O)C[C@H](CC(C)(C)O)c2nnc([C@H]3C[C@@H](CC(C)C)C3)n2C2CC2)c(C)c1.Cl | 0% | 25.3 ×10⁻⁶ cm/s | 4.4 | 30 nM
Cc1ccc(NC(=O)CCc2nnc([C@H]3C[C@@H](CC(C)C)C3)n2C2CC2)c(C)c1 | 39% |  | 4.4 | 
Cc1ccc(NC(=O)CC(CCC(=O)O)c2ncnc([C@H]3C[C@@H](CC(C)(C)C)C3)c2C2CC2)c(Cl)c1 (mixture of isomers) | 52% | 20.7 ×10⁻⁶ cm/s |  | 16 nM
Cc1ccc(NC(=O)C[C@H](CCC(=O)O)n2ncc([C@H]3C[C@@H](CC(C)(C)C)C3)c2C2CC2)c(Cl)c1 | 42% | 14.5 ×10⁻⁶ cm/s | 5 | 
Cc1ccc(NC(=O)CC(Cc2ncco2)c2nnc([C@H]3C[C@@H](CC(C)C)C3)n2C2CC2)c(C)c1 (mixture of isomers) | 75% | 27 ×10⁻⁶ cm/s | 4.5 | < 32 nM
Cc1ccc(NC(=O)CC(CC(=O)N(C)C)c2nnc([C@H]3C[C@@H](CC(C)C)C3)n2C2CC2)c(C)c1 (mixture of isomers) | 27% | 18.3 ×10⁻⁶ cm/s | 4.3 | 150 nM
Cc1ccc(NC(=O)C[C@@H](c2noc([C@H]3C[C@@H](CC(C)C)C3)c2C2CC2)C(C)(C)C(=O)O)c(C)c1 | 77% | 27.6 ×10⁻⁶ cm/s | 5 | 260 nM
Cc1cc(C)c(NC(=O)C[C@H](CC(=O)O)c2noc([C@H]3C[C@@H](CC(C)C)C3)c2C2CC2)cc1C | 78% | 32 ×10⁻⁶ cm/s | 4.6 | 
Cc1ccc(NC(=O)C[C@H](CC(=O)O)c2noc([C@H]3C[C@@H](CC(C)C)C3)c2C2CC2)c(C)c1C | 76% | 21.8 ×10⁻⁶ cm/s | 4.4 | 
Cc1ccc(NC(=O)C[C@H](Cc2nccs2)c2nnc([C@H]3C[C@@H](CC(C)C)C3)n2C2CC2)c(C)c1 | 69% | 29.4 ×10⁻⁶ cm/s | 4.6 | < 32 nM
CC(C)C[C@H]1C[C@@H](c2onc([C@@H](CC(=O)O)CC(=O)Nc3ccc(F)cc3Cl)c2C2CC2)C1 | 74% | 33.5 ×10⁻⁶ cm/s | 4.3 | 
Cc1cccc(C)c1NC(=O)C[C@H](CC(=O)O)c1noc([C@H]2C[C@@H](CC(C)C)C2)c1C1CC1 | 85% | 39.6 ×10⁻⁶ cm/s | 4.2 | 
Cc1ccc(NC(=O)C[C@H](CC(=O)O)c2noc([C@H]3C[C@@H](CC(C)C)C3)c2C2CC2)c(C)c1 | 78% | 40.6 ×10⁻⁶ cm/s | 4.3 | 
Cc1cc(C)cc(NC(=O)C[C@H](CC(=O)O)c2noc([C@H]3C[C@@H](CC(C)C)C3)c2C2CC2)c1 | 52% | 33.7 ×10⁻⁶ cm/s | 4.5 | 
Cc1ccc(NC(=O)C[C@H](OCC(=O)O)c2noc([C@H]3C[C@@H](CC(C)C)C3)c2C2CC2)c(C)c1 | 64% | 24.9 ×10⁻⁶ cm/s | 3.8 | 
Cc1ccc(NC(=O)C[C@H](C[C@H]2C[C@@H](C(=O)O)C2)c2noc([C@H]3C[C@@H](CC(C)C)C3)c2C2CC2)c(C)c1 | 69% | 20.9 ×10⁻⁶ cm/s | 5.1 | 
CCC(C)(C)C[C@H]1C[C@@H](c2onc([C@@H](CC(=O)O)CC(=O)Nc3ccc(C)cc3C)c2C2CC2)C1 | 65% | 22.5 ×10⁻⁶ cm/s | 5 | 
